Results published in PMC7144376, “Antiviral Effects of Novel 2-Benzoxyl-Phenylpyridine Derivatives” (Molecules, 2020).

Key:
[1] = Cytotoxicity on uninfected Hep-2 cells (MTT, 48 h); type: cell-based; conditions: human, read-out: CC50 (reduce cell viability by 50%), CVB3 host cells
Description: (§1) Human laryngeal carcinoma cells (Hep-2) and human cervical carcinoma cells (HeLa) were maintained in DMEM (Gibco) supplemented with 10% fetal bovine serum (FBS; Gibco), 100 U/mL penicillin and streptomycin, and 2 mM L-glutamine.
(§2) The antiviral activities of compounds against CVB3 and ADV7 were determined by measuring their inhibition of virus-induced CPEs in acutely infected Hep-2 and HeLa cells, respectively. Confluent cell monolayers in 96-well plates were infected with 100 TCID50 of CVB3 or ADV7 for 1.5 h at 37 °C, inocula were aspirated, and the cells then were incubated with various concentrations of compounds at 37 °C, 5% CO2, for 48 h. CPEs were observed by microscopy and the viability of cells was determined using MTT assays. The concentrations of test compounds required to achieve 50% protection from virus-induced cytopathogenicity (EC50 values) were determined. Adverse effects of tested compounds on host cells were also assessed using the MTT method after exposing uninfected cells to various concentrations of test compounds for 48 h at 37 °C. The CC50 values of compounds were calculated using SPSS software and selectivity indices were the ratio of CC50:EC50. Each experiment was performed in triplicate and at least three times, independently.

[2] = Cytotoxicity on uninfected HeLa cells (MTT, 48 h); type: cell-based; conditions: human, read-out: CC50 (reduce cell viability by 50%), ADV7 host cells
Description: as §1, §2

ADV7 = assay: Inhibition of ADV7-induced cytopathic effects in HeLa cells (MTT); type: cell-based, adenovirus type 7; conditions: for EC50: Human mastadenovirus B, 100 TCID50 ADV7, 48 h, MTT, read-out: EC50 (50% protection from virus-induced cytopathogenicity), ADV7
Description: (§3) Figure 1 Antiviral activities of novel 2-benzoxyl-phenylpyridine derivatives against CVB3 and ADV7. […] Hep-2 or HeLa cells were infected with 100 TCID50 of CVB3 or ADV7 for 1.5 h at 37 °C. Then, the inocula were aspirated and the cells were incubated with various concentrations of test compounds for 48 h. Cell viability was determined using the MTT assay. (b) Images showing the morphology of Hep-2 and HeLa cells treated with 120 μM W-9, 160 μM W-13, or 160 μM W-15 (magnification, 20×).
as §2

CVB3 = assay: Inhibition of CVB3-induced cytopathic effects in Hep-2 cells (MTT); type: cell-based, Coxsackievirus B3; conditions: for EC50: Enterovirus B, 100 TCID50 CVB3, 48 h, MTT, read-out: EC50 (50% protection from virus-induced cytopathogenicity), CVB3
Description: as §3, §2

Structure (SMILES)	CC50 at 48 h [1] [µM]	CC50 at 48 h [2] [µM]	SI (CC50/EC50), ADV7 (ADV7)	inhibitory activity against ADV7 infection (in words) (ADV7)	EC50 (ADV7) [µM]	SI (CC50/EC50), CVB3 (CVB3)	inhibitory activity against CVB3 infection (in words) (CVB3)	EC50 (CVB3) [µM]
O=C(Oc1ccccc1-c1ccccn1)c1ccccc1 [W1]	594 ± 49.1	1060 ± 93.5	–	–	–	–	–	–
COc1ccc(-c2ccccn2)c(OC(=O)c2ccccc2)c1 [W2]	240 ± 22	> 656	>12.9	significant inhibitory activities	50.8 ± 16.7	2.4	significant inhibitory activities	101 ± 14.1
Cc1cccc(OC(=O)c2ccccc2)c1-c1ccccn1 [W3]	630 ± 39.4	921 ± 59.5	9.8	–	–	6.0	–	–
Cc1cccnc1-c1ccc(Cl)cc1OC(=O)c1ccccc1 [W4]	222 ± 24.1	797 ± 45.7	–	–	–	4.1	selective antiviral activities against CVB3	54.4 ± 11.1
COc1ccc(OC(=O)c2ccccc2)c(-c2ncccc2C)c1 [W5]	33.5 ± 9.4	38.9 ± 18.8	–	–	–	–	–	–
Cc1ccc(OC(=O)c2ccccc2)c(-c2ncccc2C)c1 [W6]	244 ± 30.4	326 ± 21.8	4.9	significant inhibitory activities	66 ± 20.1	2.8	significant inhibitory activities	88.4 ± 19.5
Cc1cccnc1-c1sccc1OC(=O)c1ccccc1 [W7]	350 ± 28.8	1030 ± 63.1	–	–	–	–	–	–
Cc1cccnc1-c1ccc(F)cc1OC(=O)c1ccccc1 [W8]	354 ± 49.5	843 ± 37.1	–	–	–	4.4	selective antiviral activities against CVB3	80.1 ± 15
O=C(Oc1cc(Br)ccc1-c1ccccn1)c1ccccc1 [W10]	184 ± 26.3	249 ± 23.2	4.9	significant inhibitory activities	51.1 ± 20.1	5.0	significant inhibitory activities	36.7 ± 15.8
O=C(Oc1ccsc1-c1ccccn1)c1ccccc1 [W11]	378 ± 19.2	1020 ± 72.6	–	–	–	–	–	–
Cc1cccnc1-c1ccc(Br)cc1OC(=O)c1ccccc1 [W12]	128 ± 17.9	211 ± 14.7	3.3	selective anti-ADV7 activity	63.6 ± 16.6	–	–	–
CC(=O)c1ccc(-c2ccccn2)c(OC(=O)c2ccccc2)c1 [W14]	490 ± 26.8	979 ± 27.8	13.0	significant inhibitory activities	75.4 ± 20.2	5.6	significant inhibitory activities	87.1 ± 21.1
